The values below come from ChEMBL document CHEMBL2434927, “Indenoindoles and cyclopentacarbazoles as bioactive compounds: synthesis and biological applications” (Eur J Med Chem, 2013).

The subject of assay [1] is MC-38. Kind of assay: Antitumor activity against mouse C38 cells allografted in B6D2F1 mouse assessed as tumor regression at 25 mg/kg, iv administered on days 10, 17 and 24 measured for 10 weeks relative to control. Type of assay: functional.
Assay [2] concerns the target Casein kinase II (Homo sapiens, UniProt P19784+P67870+P68400). As to the kind of experiment: Inhibition of human CK2. Type of assay: protein-complex assay.
In assay [3] the test system is MCF7. As to the kind of experiment: Cytotoxicity against human MCF7 cells assessed as growth inhibition. In kind it is functional.
Assay [4] in a line: Cytotoxicity against human KYSE-70 cells assessed as growth inhibition. In kind it is functional.
The target of assay [5] is T1, NUAK family SNF1-like kinase 1 (Homo sapiens, UniProt O60285).
T1 sequence (O60285 whole entry): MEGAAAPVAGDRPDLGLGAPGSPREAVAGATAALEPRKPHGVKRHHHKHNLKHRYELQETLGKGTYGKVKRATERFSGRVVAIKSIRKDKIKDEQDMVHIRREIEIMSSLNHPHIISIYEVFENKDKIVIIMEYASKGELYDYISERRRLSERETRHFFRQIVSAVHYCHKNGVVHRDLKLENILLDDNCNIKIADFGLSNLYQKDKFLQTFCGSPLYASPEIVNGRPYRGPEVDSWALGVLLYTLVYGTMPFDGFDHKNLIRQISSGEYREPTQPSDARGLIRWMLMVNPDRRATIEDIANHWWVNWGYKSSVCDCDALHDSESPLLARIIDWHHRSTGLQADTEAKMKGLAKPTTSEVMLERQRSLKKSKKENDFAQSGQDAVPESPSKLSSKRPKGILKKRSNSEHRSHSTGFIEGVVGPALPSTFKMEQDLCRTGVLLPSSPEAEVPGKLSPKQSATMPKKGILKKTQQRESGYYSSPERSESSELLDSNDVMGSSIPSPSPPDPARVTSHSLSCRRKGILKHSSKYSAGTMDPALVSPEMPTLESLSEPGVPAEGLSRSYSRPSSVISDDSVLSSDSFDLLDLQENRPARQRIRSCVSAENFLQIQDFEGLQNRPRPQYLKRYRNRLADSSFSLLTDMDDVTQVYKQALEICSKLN
Kind of assay: Inhibition of human ARK5.

The test system of assay [6] is A-427. As to the kind of experiment: Cytotoxicity against human A427 cells assessed as growth inhibition. Type of assay: functional.
Assay [7] relates to 5637. As to the kind of experiment: Cytotoxicity against human 5637 cells assessed as growth inhibition. In kind it is functional.
Assay [8] has as its target T2, Receptor-type tyrosine-protein kinase FLT3 (Homo sapiens, UniProt P36888).
T2 sequence (P36888 whole entry): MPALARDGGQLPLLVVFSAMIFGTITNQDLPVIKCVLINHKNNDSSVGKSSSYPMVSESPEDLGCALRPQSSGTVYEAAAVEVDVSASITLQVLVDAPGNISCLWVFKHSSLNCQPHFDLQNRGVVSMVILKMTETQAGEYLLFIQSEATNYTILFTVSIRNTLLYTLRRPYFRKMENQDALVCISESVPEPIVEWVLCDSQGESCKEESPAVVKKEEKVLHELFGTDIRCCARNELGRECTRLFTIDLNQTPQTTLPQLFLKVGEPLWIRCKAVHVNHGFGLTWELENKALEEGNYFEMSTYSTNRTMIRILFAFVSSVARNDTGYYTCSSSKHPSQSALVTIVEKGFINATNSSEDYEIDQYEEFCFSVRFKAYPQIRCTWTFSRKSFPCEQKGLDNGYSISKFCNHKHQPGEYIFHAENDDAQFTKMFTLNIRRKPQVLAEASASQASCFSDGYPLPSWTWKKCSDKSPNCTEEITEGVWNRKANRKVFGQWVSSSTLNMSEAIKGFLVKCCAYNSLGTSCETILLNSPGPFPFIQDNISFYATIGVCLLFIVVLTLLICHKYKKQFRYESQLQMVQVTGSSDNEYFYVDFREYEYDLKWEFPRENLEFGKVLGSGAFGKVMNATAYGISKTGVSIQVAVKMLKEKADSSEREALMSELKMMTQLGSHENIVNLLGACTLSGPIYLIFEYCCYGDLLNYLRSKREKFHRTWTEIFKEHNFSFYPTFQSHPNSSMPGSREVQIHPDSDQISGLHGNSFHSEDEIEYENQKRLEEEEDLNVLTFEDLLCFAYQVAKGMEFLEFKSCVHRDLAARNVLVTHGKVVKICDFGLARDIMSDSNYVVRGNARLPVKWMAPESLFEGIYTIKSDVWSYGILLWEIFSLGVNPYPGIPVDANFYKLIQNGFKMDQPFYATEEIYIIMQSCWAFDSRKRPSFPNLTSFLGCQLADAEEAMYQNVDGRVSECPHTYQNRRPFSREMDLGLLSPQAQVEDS
As to the kind of experiment: Inhibition of human FLT3.

Assay [9] can be described thus: Cytotoxicity against human LCLC cells assessed as growth inhibition. Type of assay: functional.
Assay [10] has as its system SISO. As to the kind of experiment: Cytotoxicity against human SISO cells assessed as growth inhibition. Type of assay: functional.

Sequence of Casein kinase II (P67870 whole entry): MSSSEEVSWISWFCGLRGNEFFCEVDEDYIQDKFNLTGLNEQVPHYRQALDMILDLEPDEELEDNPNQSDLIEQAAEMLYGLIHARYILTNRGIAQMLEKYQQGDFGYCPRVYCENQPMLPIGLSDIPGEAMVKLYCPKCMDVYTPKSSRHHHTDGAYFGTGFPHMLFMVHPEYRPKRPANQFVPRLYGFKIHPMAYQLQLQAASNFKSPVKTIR
Sequence of Casein kinase II (P68400 whole entry): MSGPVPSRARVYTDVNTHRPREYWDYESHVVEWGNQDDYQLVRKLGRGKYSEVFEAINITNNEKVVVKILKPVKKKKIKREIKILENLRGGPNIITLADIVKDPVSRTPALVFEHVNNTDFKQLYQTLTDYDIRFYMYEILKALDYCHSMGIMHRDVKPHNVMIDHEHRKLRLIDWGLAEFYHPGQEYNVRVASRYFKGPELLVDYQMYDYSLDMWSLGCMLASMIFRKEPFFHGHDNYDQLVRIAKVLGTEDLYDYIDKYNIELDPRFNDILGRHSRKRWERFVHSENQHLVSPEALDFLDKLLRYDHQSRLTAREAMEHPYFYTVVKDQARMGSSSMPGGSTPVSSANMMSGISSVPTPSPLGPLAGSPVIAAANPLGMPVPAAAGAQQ
Sequence of Casein kinase II (P19784 whole entry): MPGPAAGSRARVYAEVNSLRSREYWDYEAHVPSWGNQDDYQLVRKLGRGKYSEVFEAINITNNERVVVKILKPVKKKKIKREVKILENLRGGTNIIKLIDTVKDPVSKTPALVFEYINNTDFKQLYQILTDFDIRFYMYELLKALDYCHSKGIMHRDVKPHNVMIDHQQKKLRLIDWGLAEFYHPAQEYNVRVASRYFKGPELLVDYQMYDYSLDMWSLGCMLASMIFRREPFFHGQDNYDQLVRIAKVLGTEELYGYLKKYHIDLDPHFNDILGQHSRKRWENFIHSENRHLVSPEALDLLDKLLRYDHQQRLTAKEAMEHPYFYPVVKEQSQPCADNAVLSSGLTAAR

As for `C#C[C@H](C)O/N=C1/c2cc(OC)c(OC)cc2-c2[nH]c3ccc(OCCN(C)C)cc3c21`, in assay [1], the Activity is reported as 100%.

In assay [2], `O=c1ccc(=O)c2c1c1c(=O)c3ccccc3c1n2Cc1ccccc1` yielded an IC50 of 1490 nM.

`CC(C)n1c2c(c3c1-c1ccccc1C3=O)C(=O)CCC2=O`: the GI in assay [3], in assay [4], in assay [6], in assay [7], in assay [9] and in assay [10] was 1.3 µM in each case. Besides, the IC50 is 570 nM in assay [5] and 180 nM in assay [8].
